The target of the assay is T1, Haspin (h) (Homo sapiens, UniProt Q8TF76).
T1 construct: purchased Eurofins (KinaseProfiler)
T1 sequence (Q8TF76 1-798): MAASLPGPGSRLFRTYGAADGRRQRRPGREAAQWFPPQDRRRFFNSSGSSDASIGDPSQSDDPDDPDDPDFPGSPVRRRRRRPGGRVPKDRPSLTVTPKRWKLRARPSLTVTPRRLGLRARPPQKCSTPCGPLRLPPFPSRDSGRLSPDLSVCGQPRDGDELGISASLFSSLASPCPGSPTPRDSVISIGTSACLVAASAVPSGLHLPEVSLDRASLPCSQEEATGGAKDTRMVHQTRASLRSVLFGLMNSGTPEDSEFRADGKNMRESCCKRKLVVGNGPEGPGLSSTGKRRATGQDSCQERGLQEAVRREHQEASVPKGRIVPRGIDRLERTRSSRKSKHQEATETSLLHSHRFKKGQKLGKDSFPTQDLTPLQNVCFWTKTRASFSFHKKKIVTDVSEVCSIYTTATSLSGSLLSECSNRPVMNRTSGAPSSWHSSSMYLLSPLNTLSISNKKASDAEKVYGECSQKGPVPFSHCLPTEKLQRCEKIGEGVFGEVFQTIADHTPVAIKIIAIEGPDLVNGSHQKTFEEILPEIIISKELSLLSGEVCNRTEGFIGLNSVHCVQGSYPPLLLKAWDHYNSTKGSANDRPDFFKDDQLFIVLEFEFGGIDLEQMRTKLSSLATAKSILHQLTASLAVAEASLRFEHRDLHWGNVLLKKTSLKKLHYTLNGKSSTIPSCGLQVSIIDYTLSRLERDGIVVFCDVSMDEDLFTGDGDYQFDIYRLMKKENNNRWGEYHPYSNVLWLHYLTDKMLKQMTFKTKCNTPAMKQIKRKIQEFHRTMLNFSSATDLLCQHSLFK
Description: radiometric kinase assay (KinaseProfiler, Eurofins), Haspin. The format is biochemical. Conditions: in vitro radiometric kinase assay, tested at 1 nM to 10 000 nM, no pre-incubation; read-out: inhibitory activities (IC50 values) Haspin. The method, then: The compounds were profiled in the radiometric assays (KinaseProfiler, Eurofins).
Briefly, kinases were diluted in the buffer shown below prior to addition to the reaction mix: • CDKL3, TAF1L: 20 mM Tris/HCl pH 8.5, 0.2 mM EDTA, 0.1% β-mercaptoethanol, 0.01% Brij-35, 5% glycerol, 1 mg/ml BSA; • Haspin: 15 mM MOPS, 0.75 mM EDTA, 0.0075% Brij-35, 3.75% Glycerol, 150 mM NaCl, 0.1% β-mercaptoethanol, 1 mg/mLBSA; • CDKL4, CLK2, PIM1, TRB2: […], 1 mM EDTA, 0.01% Brij-35, 5% Glycerol, 0.1% β-mercaptoethanol, 1 mg/mL BSA.
All compounds were prepared to 50x final assay concentration in 100% DMSO. This working stock of the compound was added to the assay well as the first component in the reaction, followed by the remaining components as detailed in the general assay protocols below. There was no pre-incubation step between the compound and the kinase prior to initiation of the reaction.
Haspin (h) was incubated with 8 mM MOPS pH 7.0, 0.2 mM EDTA, 500 µM RARTLSFAEPG (SEQ ID NO. 3), 10 mM magnesium acetate and γ-^33P-ATP (specific activity and concentration as required). The reaction was initiated by the addition of the Mg/ATP mix. After incubation for 40 minutes at room temperature, the reaction was stopped by the addition of phosphoric acid to a concentration of 0.5%. An aliquot of the reaction was then spotted onto a filter and washed four times for 4 minutes in 0.425% phosphoric acid and once in methanol prior to drying and scintillation counting.
Kinase activity data were expressed as the percent remaining kinase activity in tested samples compared to the vehicle (DMSO) reactions. The compounds were tested at the following concentrations: 1 nM, 3 nM, 10 nM, 30 nM, 100 nM, 300 nM, 1000 nM, 3000 nM, and 10 000 nM; IC50 values and curve fits were then obtained.

Results on 26 compounds are retold here after EP4483954A1 (Masarykova Univerzita, priority 2023, dated 2025).

For `CSc1cn(C)nc1Nc1ccc2scc(-c3ccncc3)c2n1` [Preparative Example 106, N-(1-methyl-4-(methylthio)-1H-pyrazol-3-yl)-3-(pyridin-4-yl)thieno[3,2-b]pyridin-5-amine], the IC50 (usually the midpoint of a concentration-inhibition curve) was 0.1 to 0.499 µM.

As to `CCOC(=O)c1cn(C)nc1Nc1ccc2scc(-c3ccncc3)c2n1` [Preparative Example 107, Ethyl 1-methyl-3-((3-(pyridin-4-yl)thieno[3,2-b]pyridin-5-yl)amino)-1H-pyrazole-4-carboxylate], the concentration for half-maximal inhibition (IC50) was 3 to 10 µM.

`Cn1ccc(CNc2ccc3scc(-c4ccncc4)c3n2)n1` [Preparative Example 108, N-((1-methyl-1H-pyrazol-3-yl)methyl)-3-(pyridin-4-yl)thieno[3,2-b]pyridin-5-amine]: the IC50 is 3 to 10 µM.

Consider `Cn1ccc(Oc2ccc3scc(-c4ccncc4)c3n2)n1` [Preparative Example 110, 5-((1-methyl-1H-pyrazol-3-yl)oxy)-3-(pyridin-4-yl)thieno[3,2-b]pyridine], for which the IC50 lay in the range of 0.1 to 0.499 µM.

Take `c1ccc(-c2ccc3scc(-c4ccncc4)c3n2)nc1` [Preparative Example 111, 5-(pyridin-2-yl)-3-(pyridin-4-yl)thieno[3,2-b]pyridine]: the IC50 was in the range of 0.1 to 0.499 µM.

Consider `c1cnc(-c2ccc3scc(-c4ccncc4)c3n2)nc1` [Preparative Example 112, 3-(pyridin-4-yl)-5-(pyrimidin-2-yl)thieno[3,2-b]pyridine], for which the IC50 fell in the range of 3 to 10 µM.

`c1cnnc(Nc2ccc3scc(-c4ccncc4)c3n2)c1` [Preparative Example 113, N-(pyridazin-3-yl)-3-(pyridin-4-yl)thieno[3,2-b]pyridin-5-amine]: the IC50 fell in the range of 0.1 to 0.499 µM.

As to `c1cc(-c2csc3ccc(Nc4ccncn4)nc23)ccn1` [Preparative Example 114, 3-(pyridin-4-yl)-N-(pyrimidin-4-yl)thieno[3,2-b]pyridin-5-amine], the IC50 was 0.5 to 3 µM.

On to `c1cnc2c(-c3ccc4scc(-c5ccncc5)c4n3)cnn2c1` [Preparative Example 115, 5-(pyrazolo[1,5-a]pyrimidin-3-yl)-3-(pyridin-4-yl)thieno[3,2-b]pyridine], for which the IC50 fell in the range of 0.5 to 3 µM.

As to `CC(C)(C)OC(=O)N1CCOC(COc2ccc3scc(-c4ccncc4)c3n2)C1` (centres unmarked) [Preparative Example 116, tert-butyl 2-(((3-(pyridin-4-yl)thieno[3,2-b]pyridin-5-yl)oxy)-methyl)morpholine-4-carboxylate], the 50% inhibitory concentration (IC50) was 3 to 10 µM.

For the compound `CC(C)(C)OC(=O)N1CCO[C@H](COc2ccc3scc(-c4ccncc4)c3n2)C1` [Preparative Example 117, tert-butyl (S)-2-(((3-(pyridin-4-yl)thieno[3,2-b]pyridin-5-yl)oxy)-methyl)morpholine-4-carboxylate], the IC50 was 3 to 10 µM.

As to `c1cc(-c2csc3ccc(OCC4CNCCO4)nc23)ccn1` (centres unmarked) [Preparative Example 118, 2-(((3-(pyridin-4-yl)thieno[3,2-b]pyridin-5-yl)oxy)methyl)-morpholine], the IC50 was 0.1 to 0.499 µM.

For the compound `Cn1ccc(-c2ccc3scc(-c4ccns4)c3n2)n1` [Preparative Example 119, 3-(isothiazol-5-yl)-5-(1-methyl-1H-pyrazol-3-yl)thieno[3,2-b]pyridine], the IC50 was in the range of 0.1 to 0.499 µM.

For `Cn1cc(C#N)c(Nc2ccc3scc(-c4ccns4)c3n2)n1` [Preparative Example 120, 3-((3-(isothiazol-5-yl)thieno[3,2-b]pyridin-5-yl)amino)-1-methyl-1H-pyrazole-4-carbonitrile], the concentration for half-maximal inhibition (IC50) was in the range of 0.02 to 0.099 µM.

Regarding `c1ccc(-c2csc3ccc(-c4cn[nH]c4)nc23)cc1` [Preparative Example 121, 3-phenyl-5-(1H-pyrazol-4-yl)thieno[3,2-b]pyridine], the IC50 lay in the range of 0.1 to 0.499 µM.

Consider `CCOC(=O)c1cn(C)nc1Nc1ccc2scc(-c3ccnc(NC(=O)OC(C)(C)C)c3)c2n1` [Preparative Example 126, Ethyl 3-((3-(2-((tert-butoxycarbonyl)amino)pyridin-4-yl)thieno[3,2-b]pyridin-5-yl)amino)-1-methyl-1H-pyrazole-4-carboxylate], for which the IC50 lay within 3 to 10 µM.

For `COC(=O)c1cn(C)nc1Nc1ccc2scc(-c3ccnc(CN)c3)c2n1` [Preparative Example 128, Methyl 3-((3-(2-(aminomethyl)pyridin-4-yl)thieno[3,2-b]pyridin-5-yl)amino)-1-methyl-1H-pyrazole-4-carboxylate], the IC50 was 3 to 10 µM.

As to `Cn1ccc(-c2ccc3scc(-c4ccc5ncnn5c4)c3n2)n1` [Preparative Example 129, 3-([1,2,4]triazolo[1,5-a]pyridin-6-yl)-5-(1-methyl-1H-pyrazol-3-yl)thieno[3,2-b]pyridine], the IC50 lay in the range of 0.1 to 0.499 µM.

As for `c1cnc(-c2ccc3scc(-c4ccc5ncnn5c4)c3n2)nc1` [Preparative Example 130, 3-([1,2,4]triazolo[1,5-a]pyridin-6-yl)-5-(pyrimidin-2-yl)thieno[3,2-b]pyridine], the IC50 was 0.5 to 3 µM.

Consider `c1cncc(-c2ccc3scc(-c4ccc5ncnn5c4)c3n2)c1` [Preparative Example 131, 3-([1,2,4]triazolo[1,5-a]pyridin-6-yl)-5-(pyridin-3-yl)thieno[3,2-b]pyridine], for which the IC50 is 0.1 to 0.499 µM.

With `c1cc(-c2ccc3scc(-c4ccc5ncnn5c4)c3n2)ccn1` [Preparative Example 132, 3-([1,2,4]triazolo[1,5-a]pyridin-6-yl)-5-(pyridin-4-yl)thieno[3,2-b]pyridine], the IC50 is 0.02 to 0.099 µM.

For the compound `CC(C)(C)OC(=O)n1cc(Nc2ccc3scc(-c4ccc5ncnn5c4)c3n2)cn1` [Preparative Example 133, tert-butyl 4-((3-([1,2,4]triazolo[1,5-a]pyridin-6-yl)thieno[3,2-b]pyridin-5-yl)amino)-1H-pyrazole-1-carboxylate], the IC50 is 3 to 10 µM.

Take `c1nc2ccc(-c3csc4ccc(Nc5cn[nH]c5)nc34)cn2n1` [Preparative Example 134, 3-([1,2,4]triazolo[1,5-a]pyridin-6-yl)-N-(1H-pyrazol-4-yl)thieno[3,2-b]pyridin-5-amine]: the concentration for half-maximal inhibition (IC50) fell in the range of 0.1 to 0.499 µM.

Take `Cn1ccc(Nc2ccc3scc(-c4ccc5nncn5c4)c3n2)n1` [Preparative Example 135, 3-([1,2,4]triazolo[4,3-a]pyridin-6-yl)-N-(1-methyl-1H-pyrazol-3-yl)thieno[3,2-b]pyridin-5-amine]: the IC50 is 0.5 to 3 µM.

On to `Cc1sc2ccc(-c3ccn(C)n3)nc2c1-c1ccncc1` [Preparative Example 143, 2-methyl-5-(1-methyl-1H-pyrazol-3-yl)-3-(pyridin-4-yl)thieno[3,2-b]pyridine], for which the 50% inhibitory concentration (IC50) lay within 0.5 to 3 µM.

As to `Cc1cc(-c2ccn(C)n2)nc2c(-c3ccncc3)csc12` [Preparative Example 158, 7-methyl-5-(1-methyl-1H-pyrazol-3-yl)-3-(pyridin-4-yl)thieno[3,2-b]pyridine], the IC50 fell in the range of 0.1 to 0.499 µM.
